Data published in PMC6151660 (Molecules : A Journal of Synthetic Chemistry and Natural …, 2017).
≈ marks a conversion by molar mass, not a printed value.

Key:
[1] = system: Mycobacterium tuberculosis H37Rv; test: microbe, parasite or virus in culture; assay type: cell-based; details: 120 h, day 5, read-out: % M. tuberculosis Growth, Day 5; for activity at 1 µM: 1 µM compound; for activity at 50 µM: 50 µM compound; for activity at 100 µM: 100 µM compound
[2] = system: M. tuberculosis H37RvMA pMSP12:GFP; test: microbe, parasite or virus in culture; assay type: cell-based; details: Mycobacterium tuberculosis
[3] = system: M. tuberculosis H37Rv:pCHERRY3; test: microbe, parasite or virus in culture; assay type: cell-based; details: Mycobacterium tuberculosis
[4] = Chinese hamster ovary cell cytotoxicity MTT assay; details: CHO cells
Method: Cytotoxicity was evaluated on CHO cells utilizing a standard 3-[4,5-dimethylthiazol-2-yl]-2,5-diphenyl tetrazolium bromide (MTT) assay. The MTT is a yellow tetrazolium salt that is reduced to purple formazan in the presence of living cells. This reduction reaction was used to measure growth and chemosensitivity. The test samples were tested in triplicate on one occasion. Cells were seeded in microtiter plates at a density of 10^5 cells/mL and incubated for 24 h prior to exposure. The test samples were prepared to a 20 mg/mL stock solution in 10% methanol or 10% DMSO and were tested as a suspension if not properly dissolved. Test compounds were stored at −20 °C until use, and administered in volumes of 100 µL to the plated cells. Emetine was used as the reference drug in all experiments. […] Plates were developed after 44 h of exposure to the drug by the addition of a solution of MTT. After four hours, further incubation at 37 °C the supernatant was removed from the cells via suction and DMSO was added to each well to dissolve the reduced dye crystals. […] The amount of formazan produced in wells containing untreated cells only and growth medium only represent 100% survival and 0% survival respectively, and the amount in each treatment well was converted to a survival percentage relative to these two extremes. The IC50 values were obtained from full dose-response curves, using a non-linear dose-response curve fitting analysis via GraphPad Prism v.4 software.

electric eel AChE = system: electric eel AChE; parameters: method as in Joubert et al., 2017 [23]; details: ref Joubert et al., 2017 [23]; cited from earlier work
[5] = molecular target: equine butyrylcholinesterase (BuChE); parameters: method as in Joubert et al., 2017 [23]; details: ref Joubert et al., 2017 [23]; cited from earlier work
[6] = SH-SY5Y cytotoxicity MTT assay; assay type: cell-based, human; details: human, SH-SY5Y neuroblastoma cells, MTT, read-out: CC 50% SH-SY5Y (range where 50% cell toxicity will be observed)
Method: (§1) The human neuroblastoma cell line SH-SY5Y was generously donated by our collaborator at the Division of Molecular Biology and Human Biology, Stellenbosch University, Tygerberg, Cape Town. Cells were cultured in monolayer using Dulbecco Modified Eagles Medium (DMEM, Gibco, Life Technologies Ltd. Carlsbad, CA, USA) supplemented with 10% fetal bovine serum (FBS, Gibco, Life Technologies Ltd.) and 1% 100 U/mL penicillin and 100 μg/mL streptomycin (Lonza Group Ltd., Basel, Switzerland). Cells were grown at 37 °C, in a humidified atmosphere at 5% CO2. Media were replaced every two to three days and cells were sub-cultured by splitting with trypsin (Lonza Group Ltd.).
(§2) The standard MTT assay which measures cell metabolic activity was used to determine cytotoxicity of CM14, CM15 and CM9 as described by Mosmann. Briefly, SH-SY5Y cells were plated in flat bottom 96 well plates in growth medium as stated in Section 3.7.1 at a density of 7500 cells/well. Cells were allowed to adhere to the plate surface for 24 h and used media were replaced with fresh media containing test compounds at 10 µM, 50 µM and 100 µM. Vehicle control cells were treated with DMSO (solvent for dissolving test compounds) at a concentration similar to the amount contained in the highest concentration of test compounds. After 48 h, 10 µL of MTT solution (5 mg/mL) was added to each well and incubated for 4 h and the purple formazan formed was solubilized with 100 µL DMSO and plates were read spectrophotometrically to determine absorbance at 570 nm using a BMG Labtech POLARStar Omega multimodal plate reader.

SH-SY5Y cells [7] = test: SH-SY5Y cytotoxicity MTT assay; assay type: cell-based, human; details: 48 h
Method: as §1, §2

SH-SY5Y cells [8] = test: MPP+-induced cytotoxicity in SH-SY5Y cells (neuroprotection); details: 1000 μM MPP+ for 48 h

Structure (SMILES) | activity at 1 µM [1] | activity at 50 µM [1] | activity at 100 µM [1] | further results
O=c1ccc2ccc(OCc3ccc(Br)cc3)cc2o1 [CM1] | 96.3% | 79.8% | 63.6% | 
Cc1cc(=O)oc2cc(OCc3ccc(Br)cc3)ccc12 [CM2] | 90% | 40.9% | 33.2% | 
Cc1c(Cl)c(=O)oc2cc(OCc3ccc(Br)cc3)ccc12 [CM3] | 97.8% | 96.1% | 92.9% | 
Cc1c(C#N)c(=O)oc2cc(OCc3ccc(Br)cc3)ccc12 [CM4] | 95.3% | 44.6% | 33.5% | 
O=c1cc(C(F)(F)F)c2ccc(OCc3ccc(Br)cc3)cc2o1 [CM5] | 107% | 65% | 56.1% | 
O=c1ccc2ccc(OCCN3CCC(Cc4ccccc4)CC3)cc2o1 [CM6] | 98.2% | 52.7% | 15.4% | 
Cc1cc(=O)oc2cc(OCCN3CCC(Cc4ccccc4)CC3)ccc12 [CM7] | 95.1% | 29.5% | 8.18% | 
Cc1c(Cl)c(=O)oc2cc(OCCN3CCC(Cc4ccccc4)CC3)ccc12 [CM8] | 93.6% | 5.69% | 4.62% | MIC90 [2]: 19.6 µM (≈ 8.07 µg/mL); MIC99 [2]: 25.2 µM (≈ 10.4 µg/mL); MIC90 [3]: 40.5 µM (≈ 16.7 µg/mL); MIC99 [3]: 44.1 µM (≈ 18.2 µg/mL); CC50 at 44 h [4]: 33 µM; IC50 (electric eel AChE): 31.3 µM; IC50 [5]: 1.27 µM
Cc1c(C#N)c(=O)oc2cc(OCCN3CCC(Cc4ccccc4)CC3)ccc12 [CM9] | 92.8% | 7.75% | 6.19% | CC50 at 48 h [6]: 10 to 50 µM; effect on viability of SH-SY5Y cells (SH-SY5Y cells [7]; 10 µM): did not significantly affect; effect on viability of SH-SY5Y cells (SH-SY5Y cells [7]; 50 µM and 100 µM): significantly (p < 0.001) affected; IC50 (electric eel AChE): 9.1 µM; IC50 [5]: 5.9 µM; cell survival restored after MPP+ exposure (SH-SY5Y cells [8]; 1 µM compound, untreated control 100%): 81.86 ± 3.72%; maximal cytoprotection (cell viability) after MPP+ exposure (SH-SY5Y cells [8]; 10 µM compound): 92.2 ± 4.18%
O=c1ccc2ccc(OCCN3CCN(Cc4ccc(Br)cc4)CC3)cc2o1 [CM11] | 95.2% | 7.05% | 4.46% | 
Cc1cc(=O)oc2cc(OCCN3CCN(Cc4ccc(Br)cc4)CC3)ccc12 [CM12] | 95.2% | 4.35% | 3.93% | MIC90 [2]: 14 µM (≈ 6.4 µg/mL); MIC99 [2]: 29.7 µM (≈ 13.6 µg/mL); MIC90 [3]: 40.9 µM (≈ 18.7 µg/mL); MIC99 [3]: 50.4 µM (≈ 23.1 µg/mL); CC50 at 44 h [4]: 15.5 µM; IC50 (electric eel AChE): 12.8 µM; IC50 [5]: 9.7 µM
